In US11807693B2 (priority 2014, dated 2023):
Like-named read-outs stand apart in the source and are kept apart here. Non-standard residues stand in square brackets, D forms with d. Residues, ends and D or L forms follow the SMILES beside them. No end group written: not given here. dBip = N[C@H](Cc1ccc(-c2ccccc2)cc1)C(=O)O; Oic = O=C(O)[C@@H]1C[C@@H]2CCCC[C@@H]2N1; Phe(4-Cl) = N[C@@H](Cc1ccc(Cl)cc1)C(=O)O; Phe(4-I) = N[C@@H](Cc1ccc(I)cc1)C(=O)O; hArg = N=C(N)NCCCC[C@H](N)C(=O)O; Cha = N[C@@H](CC1CCCCC1)C(=O)O; NMeL = CN[C@@H](CC(C)C)C(=O)O; Nle = CCCC[C@H](N)C(=O)O

What was measured:
[1] = test system: rats with myocardial infarction (MI)-induced heart failure; test: Hemodynamics in rats with MI-induced heart failure (Millar PV loop); assay type: in vivo, Lewis rats; settings: continuous i.v. infusion, 30 min per dose
Experimental: To assess the cardiovascular effects of modified apelin polypeptides, the polypeptides were administered to rats with myocardial infarction (MI)-induced heart failure. Cardiac function was assessed via the Millar PV loop system.
Male Lewis rats at 2-3 month of age were used for the studies. MI was induced by ligation of the left anterior descending coronary artery (LAD). Echocardiography was performed at 1 week post-MI for animal enrollment. If ejection fraction (EF) was more than 40% and no infarct was identified from echocardiography images, these animals were excluded from the study. A Millar PV loop catheter was inserted into the right common carotid artery and then advanced to the left ventricle (LV) for cardiovascular hemodynamic assessment. The arterial pressure catheter was inserted into a femoral artery for peripheral blood pressure monitoring. Experiments were performed six to seven weeks following induction of MI. The following apelin polypeptides were given intravenously via jugular vein at various doses.
Peptides were continuously infused for 30 min at each dose. At the end of the experiment, the infarct size was verified by gross morphology. FIGS. 6-8 show the results of these experiments. The infarct size (38-39% of LV) was very similar among groups. […] Contractility (dp/dt max), ejection fraction (EF), mean arterial pressure (MAP), and heart rate (HR) changes over baseline are reported at the end of the 30 min infusion period for each polypeptide.

[2] = test system: Rat Peritoneal Mast Cells
[3] = In vitro stability in rat kidney homogenate; assay type: in vitro ADME
How it was run: (§1)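 Stability was followed for 4 hr at 37° C. after spiking peptides (5 μM final) into rat plasma and tissue homogenates. Methanol quench with internal standard preceded high resolution LC-MS.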

[4] = In vitro stability in rat liver homogenate; assay type: in vitro ADME; settings: tissue homogenate
How it was run: as §1

[5] = In vitro stability in rat plasma; assay type: in vitro ADME
How it was run: as §1

rat APJ receptor = biological target: T1, rat APJ receptor (Rattus norvegicus, UniProt Q9JHG3); test: [35S] GTPγS assay, rat APJ receptor; assay type: biochemical; settings: read-out: EC50 Rat APJ Receptor
T1 construct: expressed in transfected cells
T1 sequence (Q9JHG3 1-377): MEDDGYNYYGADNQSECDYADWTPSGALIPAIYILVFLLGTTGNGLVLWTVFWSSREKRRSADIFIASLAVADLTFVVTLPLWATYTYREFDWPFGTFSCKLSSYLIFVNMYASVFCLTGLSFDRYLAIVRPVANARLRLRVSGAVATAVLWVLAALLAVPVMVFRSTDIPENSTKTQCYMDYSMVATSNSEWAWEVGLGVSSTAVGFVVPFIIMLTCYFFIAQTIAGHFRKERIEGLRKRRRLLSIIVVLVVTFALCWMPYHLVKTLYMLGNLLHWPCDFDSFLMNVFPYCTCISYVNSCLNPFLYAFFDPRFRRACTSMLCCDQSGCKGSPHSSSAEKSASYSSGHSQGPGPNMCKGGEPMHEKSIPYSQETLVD
Experimental: The membranes were incubated with modified peptides in the assay buffer. […] Bound [^35S] GTPγS was separated from free radiolabel by filtration. The filter bound radioactivity was determined by liquid scintillation counting.

Human Mast Cells = test: Mast cell degranulation (histamine release), human mast cells; assay type: cell-based; settings: human mast cells derived from CD34+ peripheral blood cells; 0.005 to 30 μM, 37° C., 30 min; less than 30% of total histamine content = negative
Experimental: Mast cell degranulation was measured for a number of the modified apelin polypeptides as follows in order to determine the potential immunogenic effect of the peptides. Mast cell degranulating peptide (MCDP) and compound 48/80 were used as positive controls. MCDP was obtained from Alomone Labs (Israel). Compound 48/80 was obtained from Sigma (Saint Louis, […].). Histamine Elisa kit was obtained from NEOGEN (Lexington, Ky.). Tyrode's buffer was obtained from Sigma (#T2397).
Mature human mast cells were derived from CD34+peripheral blood precursor cells after an 8-12 week differentiation/maturation process in vitro. […] Mast cell maturation was confirmed via expression of the mast cell markers c-kit and FcεRI via flow cytometry (>75% positive) and histamine release.
Mast cells (human or rat) were washed in Tyrode's buffer and seeded on 96-well plates (approx. 2000 mast cells/well). A 10 point dilution of test compounds were prepared in Tyrode's buffer and were incubated (0.005 to 30 μM) with mast cells at 37° C. for 30 min. […] A mast cell surfactant control is compared to a mast cell Tyrode's buffer control to ensure surfactants are not inducing histamine release in the absence of the lipidated molecule. Histamine release was quenched by placing the plates on ice for 5 min. Cells were centrifuged at 350×g at 4° C. for 5 min and the supernatant was collected. Released histamine was quantified by ELISA (Neogen Corporation) as per the kits' instruction. Briefly, the absorbance was measured at 650 nm in a microplate reader, following a direct competitive ELISA reaction with test samples compared against a standard curve. Total histamine content of the cells (0.1% Triton X-100) and spontaneous release were also measured to determine the percent of histamine release. Percent histamine release was calculated by the following formula: % histamine release=(ng/ml histamine release by test article−ng/ml spontaneous histamine release in Tyrode's buffer)/(ng/ml total histamine content of cells lysed in 0.1% Triton X-100−ng/ml spontaneous histamine release in Tyrode's buffer)×100.

liver homogenate = settings: rat, 37° C., up to 4 hr
kidney homogenate = settings: rat, 37° C., up to 4 hr

Compound	remaining at 4 h, 5 μM [4] [%]	remaining at 4 h, 5 μM [5] [%]	Induce Histamine Release? Human Mast Cells (Human Mast Cells)	not cleaved (liver homogenate) [% remaining at 4 hours]	also measured
109 (QRP[hArg][Cha]SHKG[Oic][Nle]P[Phe(4-Cl)]-OH; not fully specified (N-terminus)) [compound 109]	–	–	–	–	hemodynamic function (dp/dt max, EF, MAP, HR) in MI rats [1]: dose-dependent effects
CSCC[C@H](NC(=O)[C@@H]1CCCN1C(=O)CNC(=O)[C@H](CCCCN)NC(=O)[C@H](Cc1cnc[nH]1)NC(=O)[C@H](CO)NC(=O)[C@H](CC(C)C)NC(=O)[C@H](CCCNC(=N)N)NC(=O)[C@@H]1CCCN1C(=O)[C@H](CCCNC(=N)N)NC(=O)[C@@H]1CCC(=O)N1)C(=O)N1CCC[C@H]1C(=O)N[C@@H](Cc1ccccc1)C(=O)O [SEQ ID NO: 6, reference compound]	–	–	–	–	Cause Histamine Release? [2]: No; hemodynamic function (dp/dt max, EF, MAP, HR) in MI rats [1]: dose-dependent effects
CSCC[C@H](NC(=O)[C@@H]1CCCN1C(=O)CNC(=O)[C@H](CCCCN)NC(=O)[C@H](Cc1cnc[nH]1)NC(=O)[C@H](CO)NC(=O)[C@H](CC(C)C)NC(=O)[C@H](CCCNC(=N)N)NC(=O)[C@@H]1CCCN1C(=O)[C@H](CCCNC(=N)N)NC(=O)[C@@H]1CCC(=O)N1)C(=O)N1CCC[C@H]1C(=O)N[C@@H](Cc1ccccc1)C(=O)O [compound 6]	–	–	–	–	induction of histamine release from rat mast cells [2]: inactive at the highest concentrations tested; Stability at 4 hours (% Remaining) Kidney ([3]; rat kidney homogenate, 5 μM peptide, 37° C., 4 hr): <1.0 % Remaining
CC(=O)N[C@@H](CCCCNC(=N)N)C(=O)N[C@H](CCCNC(=N)N)C(=O)N[C@@H](CCC(N)=O)C(=O)N[C@@H](CCCCNC(=N)N)C(=O)N1CCC[C@H]1C(=O)N[C@H](CCCNC(=N)N)C(=O)N(C)[C@@H](CC(C)C)C(=O)N[C@@H](CO)C(=O)N[C@@H](Cc1c[nH]cn1)C(=O)N[C@@H](CCCCN)C(=O)NCC(=O)N1[C@H](C(=O)N[C@@H](Cc2ccc(I)cc2)C(=O)N2CCC[C@H]2C(=O)N[C@H](Cc2ccc(-c3ccccc3)cc2)C(=O)O)C[C@@H]2CCCC[C@@H]21 [compound 16] (Ac-[hArg][dR]Q[hArg]P[dR][NMeL]SHKG[Oic][Phe(4-I)]P[dBip]-OH)	40.7	86.1	–	–	remaining at 4 h, 5 μM ([3]; rat, tissue homogenate): 44.5%; hemodynamic function (dp/dt max, EF, MAP, HR) in MI rats [1]: dose-dependent effects
CC(=O)N[C@H](CCCNC(=N)N)C(=O)N[C@@H](CCC(N)=O)C(=O)N[C@@H](CCCNC(=N)N)C(=O)N1CCC[C@H]1C(=O)N[C@@H](CCCCNC(=N)N)C(=O)N(C)[C@@H](CC(C)C)C(=O)N[C@@H](CO)C(=O)N[C@@H](Cc1c[nH]cn1)C(=O)N[C@@H](CCCCN)C(=O)NCC(=O)N1[C@H](C(=O)N[C@@H](Cc2ccc(I)cc2)C(=O)N2CCC[C@H]2C(=O)N[C@H](Cc2ccc(-c3ccccc3)cc2)C(=O)O)C[C@@H]2CCCC[C@@H]21 [compound 52] (Ac-[dR]QRP[hArg][NMeL]SHKG[Oic][Phe(4-I)]P[dBip]-OH)	–	–	–	–	EC50 [2]: 550 nM; EC50 (rat APJ receptor): 1.14 nM
CCCC[C@H](NC(=O)[C@@H]1CCCN1C(=O)CNC(=O)[C@H](CCCCN)NC(=O)[C@H](Cc1c[nH]cn1)NC(=O)[C@H](CO)NC(=O)[C@H](CC(C)C)NC(=O)[C@H](CCCNC(=N)N)N(C)C(=O)[C@@H]1CCCN1C(=O)[C@H](CCCNC(=N)N)NC(=O)[C@H](CCC(N)=O)NC(C)=O)C(=O)N1CCC[C@H]1C(=O)N[C@@H](Cc1ccc(Cl)cc1)C(=O)O [compound 68]	< 1	59.6	No	–	EC50 (rat APJ receptor; rat APJ receptor): 0.384 nM
CCCC[C@H](NC(=O)[C@@H]1CCCN1C(=O)CNC(=O)[C@H](CCCCN)NC(=O)[C@H](Cc1c[nH]cn1)NC(=O)[C@H](CO)NC(=O)C(C)(CC(C)C)NC(=O)[C@H](CCCCNC(=N)N)NC(=O)C1(C)CCCN1C(=O)[C@H](CCCNC(=N)N)NC(=O)[C@H](CCC(N)=O)NC(C)=O)C(=O)N1CCC[C@H]1C(=O)N[C@@H](Cc1ccc(Cl)cc1)C(=O)O (stereo partly shown) [compound 69]	–	–	No	–	–
CCCCCCCCCCCCC(=O)N[C@@H](CCC(=O)NCCOCCOCC(=O)NCCOCCOCC(=O)N[C@@H](CCC(N)=O)C(=O)N[C@@H](CCCNC(=N)N)C(=O)N1CCC[C@H]1C(=O)N(C)[C@@H](CCCNC(=N)N)C(=O)N[C@@H](CC(C)C)C(=O)N[C@@H](CO)C(=O)N[C@@H](Cc1c[nH]cn1)C(=O)N[C@@H](CCCCN)C(=O)NCC(=O)N1CCC[C@H]1C(=O)N[C@@H](CCCC)C(=O)N1CCC[C@H]1C(=O)N[C@@H](Cc1ccc(Cl)cc1)C(=O)O)C(=O)O [compound 287]	< 1	18	Yes	–	–
CCCC[C@H](NC(=O)[C@@H]1CCCN1C(=O)CNC(=O)[C@H](CCCCN)NC(=O)[C@H](Cc1c[nH]cn1)NC(=O)[C@H](CO)NC(=O)[C@H](CC(C)C)NC(=O)[C@H](CCCNC(=N)N)N(C)C(=O)[C@@H]1CCCN1C(=O)[C@H](CCCNC(=N)N)NC(=O)[C@H](CCC(N)=O)NC(=O)COCCOCCNC(=O)COCCOCCNC(=O)CC[C@H](NC(=O)CCC)C(=O)O)C(=O)N1CCC[C@H]1C(=O)N[C@@H](Cc1ccc(Cl)cc1)C(=O)O [compound 491]	< 1	< 1	No	–	–
{H2} [MerPr] (10K mPEG acetamide) Q R [aMePro] [hArg] [aMeLeu] S H K G P [Nle] P [4-Cl-F] {COOH}	–	–	–	>90.0	not cleaved (kidney homogenate): >90.0 % remaining at 4 hours
{H2} [MerPr] (10K mPEG acetamide) Q [NMehArg] P [NMeArg] [aMeLeu] S H K G P [Nle] P [4-Cl-F] {COOH}	–	–	–	>90.0	–
{H2} [MerPr] (10K mPEG acetamide) Q r P [hArg] [aMeLeu] S H K G P [Nle] P [4-Cl-F] {COOH}	–	–	–	>90.0	–
{TDA}[AC4Abu][Aeea][Aeea]RQRP[hArg][NMeLeu]SHKG[Oic][pI-Phe]P[D-Bip]{COOH}	–	–	–	>90.0	not cleaved (kidney homogenate): >90.0 % remaining at 4 hours
